One assay has as its target CDK2/Cyclin A complex (Homo sapiens, UniProt P24941). As to the kind of experiment: CDK2/Cyclin A assay. It counts as biochemical. To be noted: Table 2. The gist of the method:
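Radiometric assay: 150 nM CDK2/cyclin A (insect-cell CDK2, truncated cyclin A) phosphorylates His-tagged Rb fragment (residues 386-928) with 25 μM ATP plus [32P]ATP, pH 7.4 HEPES, 2% DMSO, 30 °C for 20 min. Filter-captured product counted by phosphorimager; apparent Ki from competitive or tight-binding inhibition fits.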

For the next assay, the target named is T1, CDK4/Cyclin D3 complex (Homo sapiens, UniProt P11802).
T1 construct: made in house; host or cells: insect cells co-infected with baculovirus vectors
As to the kind of experiment: CDK4/Cyclin D assay. The settings on record: Table 2; for inhibition at 100 µM: at 100 (printed 100 or 100 μM). It is filed as biochemical. An outline of the steps:
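Insect-cell-expressed CDK4/cyclin D3 (50 nM) phosphorylating His-tagged Rb fragment (residues 386-928) with 25 μM [^32P]ATP in HEPES pH 7.4, MgCl2, 2% DMSO; 20 min at 30 °C, EDTA stop. Filter-captured 32P by phosphorimager; apparent Ki from competitive or tight-binding inhibition fits.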

The target in assay [1] is T2, phosphorylated VEGF-R2Δ50 (Homo sapiens, UniProt P35968, DEL940-989/E990V).
T2 construct: VEGF-R2Δ50 contains residues 806-939 and 990-1171; made in house; host or cells: baculovirus/insect cells
As to the kind of experiment: VEGF-R2 ELISA assay. To be noted: for Ki: * determined with ELISA assay, read-out: FLVK-P Ki; for FLVK-P % inhibition @ 300*: at 300 (head μM). It counts as biochemical. The text has this:
VEGF-R2 Construct for Assay: This construct determines the ability of a test compound to inhibit tyrosine kinase activity. A construct (VEGF-R2Δ50) of the cytosolic domain of human vascular endothelial growth factor receptor 2 (VEGF-R2) lacking the 50 central residues of the 68 residues of the kinase insert domain was expressed in a baculovirus/insect cell system. Of the 1356 residues of full-length VEGF-R2, VEGF-R2Δ50 contains residues 806-939 and 990-1171, and also one point mutation (E990V) within the kinase insert domain relative to wild-type VEGF-R2. Autophosphorylation of the purified construct was performed by incubation of the enzyme at a concentration of 4 μM in the presence of 3 mM ATP and 40 mM MgCl2 in 100 mM Hepes, pH 7.5, containing 5% glycerol and 5 mM DTT, at 4° C. for 2 h. […] See Parast et al., Biochemistry, 37, 16788-16801 (1998).
Formation of phosphogastrin was monitored using biotinylated gastrin peptide (1-17) as substrate. Biotinylated phosphogastrin was immobilized using streptavidin coated 96-well microtiter plates followed by detection using anti-phosphotyrosine-antibody conjugated to horseradish peroxidase. The activity of horseradish peroxidase was monitored using 2,2′-azino-di-[3-ethylbenzathiazoline sulfonate(6)]diammonium salt (ABTS). Typical assay solutions contained: 2 μM biotinylated gastrin peptide; 5 mM DTT; 20 μM ATP; 26 mM MgCl2; and 2 mM MnCl2 in 200 mM Hepes, pH 7.5. The assay was initiated with 0.8 nM of phosphorylated VEGF-R2Δ50. Horseradish peroxidase activity was assayed using ABTS, 10 mM. The horseradish peroxidase reaction was quenched by addition of acid (H2SO4), followed by absorbance reading at 405 nm. Ki values were determined by measuring enzyme activity in the presence of varying concentrations of test compounds. The data were analyzed using Enzyme Kinetic and Kaleidagraph software.
A general note: In an ELISA, binding on a coated surface is turned into a signal by an enzyme label.

Assay [2] deals with human umbilical vein endothelial cells (HUVEC). As to the kind of experiment: HUVEC proliferation assay. It counts as cell-based. The settings on record: Homo sapiens, HUVEC, Table 1. An outline of the steps: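 Exponentially growing HUVEC were serum-starved 24 h (F12K + 1% FBS), pre-treated 1 h with compound (0.1% DMSO final), then stimulated with 6 ng/ml VEGF. Proliferation was read 72 h later by MTT reduction (A595). IC50 came from seven 0.5-log concentrations in triplicate; screens gave % inhibition relative to VEGF-only and starved wells.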

For assay [3], the system named is lung cancer cells (line MV522). As to the kind of experiment: Cancer cell proliferation (MV522) assay. The settings on record: MV522, Table 1. It counts as cell-based.

Read-outs that look alike come from different tables or passages of the source. A value given as a limit tells only on which side of the number the result lay.

T2 sequence (P35968 with tags, fused parts or gaps DEL940-989/E990V limits assumed): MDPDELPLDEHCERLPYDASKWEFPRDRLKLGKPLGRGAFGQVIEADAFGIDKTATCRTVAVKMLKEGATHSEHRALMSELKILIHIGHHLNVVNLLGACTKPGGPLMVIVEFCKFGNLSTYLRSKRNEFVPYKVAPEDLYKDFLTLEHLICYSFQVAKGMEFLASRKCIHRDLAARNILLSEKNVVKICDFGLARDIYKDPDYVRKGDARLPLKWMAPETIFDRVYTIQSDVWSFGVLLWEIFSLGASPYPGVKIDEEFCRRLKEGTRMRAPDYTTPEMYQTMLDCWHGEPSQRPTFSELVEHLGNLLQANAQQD
T1 sequence (P11802 whole entry): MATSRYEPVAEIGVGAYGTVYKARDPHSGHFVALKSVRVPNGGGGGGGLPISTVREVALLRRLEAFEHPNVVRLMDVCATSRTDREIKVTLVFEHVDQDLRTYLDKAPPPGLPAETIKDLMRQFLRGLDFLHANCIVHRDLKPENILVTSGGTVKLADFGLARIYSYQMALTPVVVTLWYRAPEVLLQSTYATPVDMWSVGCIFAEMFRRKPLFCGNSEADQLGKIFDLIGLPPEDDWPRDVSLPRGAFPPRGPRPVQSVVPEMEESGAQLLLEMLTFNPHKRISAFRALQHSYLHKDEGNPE
T1 sequence (P30281 whole entry partner): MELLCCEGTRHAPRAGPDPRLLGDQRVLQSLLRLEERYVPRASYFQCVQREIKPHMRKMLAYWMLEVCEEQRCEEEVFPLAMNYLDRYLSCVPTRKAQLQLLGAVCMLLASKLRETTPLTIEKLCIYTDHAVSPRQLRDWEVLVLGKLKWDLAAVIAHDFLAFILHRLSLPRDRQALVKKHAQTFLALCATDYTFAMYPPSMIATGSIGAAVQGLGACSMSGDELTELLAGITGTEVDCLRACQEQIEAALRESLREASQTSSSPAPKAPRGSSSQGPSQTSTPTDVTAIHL

The Ki is the dissociation constant of the complex between target and ligand, obtained from inhibition or displacement. As to `Nc1nc(Nc2ccc(S(N)(=O)=O)cc2)sc1-c1nc(-c2ccc(O)cc2)cs1` [A(8), 4-[4′-Amino-4-(4-hydroxy-phenyl)-[2,5′]bithiazolyl-2′-ylamino]-benzenesulfonamide], the results for the inhibition constant Ki (on CDK2/Cyclin A complex; at CDK4/Cyclin D3 complex; in assay [1] (Table 2)) were 800 nM, 0.42 µM and 58 nM, respectively.

What is called IC50 is the concentration at which inhibition is half-maximal. Low values mean greater potency in that assay, high ones weaker potency in that assay. Take `COc1cc(Nc2nc(N)c(-c3nc(-c4cccc(NC(=O)Oc5ccccc5)c4)cs3)s2)cc(OC)c1OC` [D(4), {3-[4′-Amino-2′-(3,4,5-trimethoxy-phenylamino)-[2,5′]bithiazolyl-4-yl]-phenyl}-carbamic acid phenyl ester]: the concentration for half-maximal inhibition (IC50) was 240 nM in assay [2] and > 10 µM in assay [3]. For the same molecule, the Ki in assay [1] (Table 1) was found to be 7.6 nM.

Regarding `COC(=O)Nc1cccc(-c2csc(-c3sc(Nc4cc(OC)c(OC)c(OC)c4)nc3N)n2)c1` [D(6), {3-[4′-Amino-2′-(3,4,5-trimethoxy-phenylamino)-[2,5′]bithiazolyl-4-yl]-phenyl}-carbamic acid methyl ester], the inhibition constant Ki in assay [1] (Table 1) was determined as 25 nM.

Take `CNC(=O)Nc1cccc(-c2csc(-c3sc(Nc4cc(OC)c(OC)c(OC)c4)nc3N)n2)c1` [D(7), 1-{3-[4′-Amino-2′-(3,4,5-trimethoxy-phenylamino)-[2,5′]bithiazolyl-4-yl]-phenyl}-3-methyl-urea]: in assay [1] (Table 1), the Ki worked out at 120 nM.

Take `CCC(=O)Nc1cccc(-c2csc(-c3sc(Nc4cc(OC)c(OC)c(OC)c4)nc3N)n2)c1` [D(8), N-{3-[4′-Amino-2′-(3,4,5-trimethoxy-phenylamino)-[2,5′]bithiazolyl-4-yl]-phenyl}-propionamide]: the Ki in assay [1] (Table 1) was 29 nM.

For the molecule `COc1cc(Nc2nc(N)c(-c3nc(-c4cccc(NC(=O)CC(C)C)c4)cs3)s2)cc(OC)c1OC` [D(9)], the Ki in assay [1] (Table 1) was 47 nM.

Consider `COc1cc(Nc2nc(N)c(-c3nc(-c4cccc(NC(=O)OC(C)C)c4)cs3)s2)cc(OC)c1OC` [D(10), {3-[4′-Amino-2′-(3,4,5-trimethoxy-phenylamino)-[2,5′]bithiazolyl-4-yl]-phenyl}-carbamic acid isopropyl ester], for which the inhibitory constant (Ki) in assay [1] (Table 1) turned out to be 56 nM.

Consider `COc1cc(Nc2nc(N)c(-c3nc(-c4cccc(NC(=O)C(F)(F)F)c4)cs3)s2)cc(OC)c1OC` [D(13), N-{^3-[4′-Amino-2′-(3,4,5-trimethoxy-phenylamino)-[2,5′]bithiazolyl-4-yl]-phenyl}-2,2,2-trifluoro-acetamide], for which the Ki in assay [1] (Table 1) was 120 nM.

`COc1cc(Nc2nc(N)c(-c3nc(-c4cccc(NC(=O)C(F)F)c4)cs3)s2)cc(OC)c1OC` [D(14), N-{3-[4′-Amino-2′-(3,4,5-trimethoxy-phenylamino)-[2,5′]bithiazolyl-4-yl]-phenyl}-2,2-difluoro-acetamide]: the Ki in assay [1] (Table 1) stood at 120 nM.

Regarding `COc1cc(Nc2nc(N)c(-c3nc(-c4cccc(NC(=O)COc5ccccc5)c4)cs3)s2)cc(OC)c1OC` [D(15), N-{3-[4′-Amino-2′-(3,4,5-trimethoxy-phenylamino)-[2,5′]bithiazolyl-4-yl]-phenyl}-2-phenoxy-acetamide], the inhibition constant (Ki) in assay [1] (Table 1) was 240 nM.

With `COc1cc(Nc2nc(N)c(-c3nc(-c4cccc(NC(=O)c5cc6ccccc6o5)c4)cs3)s2)cc(OC)c1OC` [D(21), Benzofuran-2-carboxylic acid {3-[4′-amino-2′-(3,4,5-trimethoxy-phenylamino)-[2,5′]bithiazolyl-4-yl]-phenyl}-amide], the values for the 50% inhibitory concentration (IC50) in assay [2] and in assay [3] were 200 nM and > 10 µM, respectively. Also, the inhibition constant (Ki) in assay [1] (Table 1) was 60 nM.

As to `COc1cc(Nc2nc(N)c(-c3nc(-c4cccc(NC(=O)Oc5cccc6ccccc56)c4)cs3)s2)cc(OC)c1OC` [D(22), {3-[4′-Amino-2′-(3,4,5-trimethoxy-phenylamino)-[2,5′]bithiazolyl-4-yl]-phenyl}-carbamic acid naphthalen-1-yl ester], in assay [1] (Table 1), the Ki turned out to be 89 nM.

In the case of `COc1cc(Nc2nc(N)c(-c3ccccn3)s2)cc(OC)c1OC` [G(1), 5-Pyridin-2-yl-N^2-(3,4,5-trimethoxy-phenyl)-thiazole-2,4-diamine], the Ki was 50 µM on CDK4/Cyclin D3 complex and 57000 nM in assay [1] (Table 2).

Consider `Nc1nc(Nc2ccccc2)sc1-c1ccccn1` [G(2), N^2-Phenyl-5-pyridin-2-yl-thiazole-2,4-diamine], for which the Ki on CDK4/Cyclin D3 complex stood at 5.7 µM. For the same molecule, the “FLVK-P % inhibition @ 100*” value in assay [1] (Table 2, ELISA assay, at 100 (head μM)) worked out at 18% @.

Regarding `Nc1nc(Nc2ccc3c(c2)OCCO3)sc1-c1ccccn1` [G(3), N^2-(2,3-Dihydro-benzo[1,4]dioxin-6-yl)-5-pyridin-2-yl-thiazole-2,4-diamine], the inhibition constant Ki on CDK4/Cyclin D3 complex came out at 6.2 µM. Besides, in assay [1] (Table 2, ELISA assay, at 20 (head μM)), the “FLVK-P % inhibition @ 20*” value worked out at 13% @.

With `COc1ccc(Nc2nc(N)c(-c3ccccn3)s2)cc1OC` [G(4), N^2-(3,4-Dimethoxy-phenyl)-5-pyridin-2-yl-thiazole-2,4-diamine], at CDK4/Cyclin D3 complex, the inhibitory constant (Ki) stood at 11.4 µM. Also, in assay [1] (Table 2, ELISA assay), the “FLVK-P % inhibition @ 300*” value is given as 42% @.

Turning to `COc1cc(Nc2nc(N)c(-c3noc(-c4ccsc4)n3)s2)cc(OC)c1OC` [G(7), 5-(5-Thiophen-3-yl-[1,2,4]oxadiazol-3-yl)-N^2-(3,4,5-trimethoxy-phenyl)-thiazole-2,4-diamine], on CDK2/Cyclin A complex (at 10 (head μM)), the “CDK2 % inhibition @ 10” value is 21% @. Also, the inhibition constant Ki in assay [1] (Table 2) worked out at 1600 nM.

As to `Nc1nc(Nc2ccc(S(N)(=O)=O)cc2)sc1-c1nc(O)cs1` [H(1), 4-(4′-Amino-4-hydroxy-[2,5′]bithiazolyl-2′-ylamino)-benzenesulfonamide], the Ki on CDK2/Cyclin A complex turned out to be 650 nM; on CDK4/Cyclin D3 complex, 3.8 µM; in assay [1] (Table 2) it was 3600 nM.

As for `CN(C)c1ccc(Nc2nc(N)c(-c3nc(O)c(-c4ccccc4O)s3)s2)cc1` [H(3), 4′-Amino-2′-(4-dimethylamino-phenylamino)-5-(2-hydroxy-phenyl)-[2,5′]bithiazoly-4-ol], the figures for the Ki (at CDK2/Cyclin A complex; on CDK4/Cyclin D3 complex; in assay [1] (Table 2)) were 8800 nM, 1.7 µM and 6100 nM, respectively.

Usually inhibition stands for the share of the control response that was lost under treatment. Turning to `COc1cc(Nc2nc(N)c(C3=NC(CC(C)C)CO3)s2)cc(OC)c1OC` (centres unmarked) [I(3), S-5-(4-Isobutyl-4,5-dihydro-oxazol-2-yl)-N^2-(3,4,5-trimethoxyl-phenyl)-thiazole-2,4-diamine], on CDK4/Cyclin D3 complex, the inhibition at 100 µM is < 0%. In addition, the “FLVK-P % inhibition @ 300*” value in assay [1] (Table 2, ELISA assay) is 40% @.

On to `Nc1nc(Nc2ccc(S(N)(=O)=O)cc2)sc1C1=NC(c2ccccc2)CO1` (centres unmarked) [I(5), S-4-[4-Amino-5-(4-phenyl-4,5-dihydro-oxazol-2-yl)-thiazol-2-ylamino]-benzenesulfonamide], for which the inhibition at 100 µM on CDK4/Cyclin D3 complex worked out at 47%. Besides, in assay [1] (Table 2), the Ki is 770 nM.

As for `COc1cc(Nc2nc(N)c(C3=N[C@H](c4ccccc4)CO3)s2)cc(OC)c1OC` [I(7), R-5-(4-Phenyl-4,5-dihydro-oxazol-2-yl)-N^2-(3,4,5-trimethoxyl-phenyl)-thiazole-2,4-diamine], in assay [1] (Table 2), the Ki worked out at 5200 nM.

Turning to `COc1cc(Nc2nc(N)c(C3=N[C@H](C)[C@H](c4ccccc4)O3)s2)cc(OC)c1OC` [I(18), 5-(4(R)-Methyl-5(S)-phenyl-4,5-dihydro-oxazol-2-yl)-N^2-(3,4,5-trimethoxy-phenyl)-thiazole-2,4-diamine], the Ki in assay [1] (Table 2) turned out to be 2700 nM.

For the molecule `COc1cc(Nc2nc(N)c(-c3nn[nH]n3)s2)cc(OC)c1OC` [J(1), 5-(2H-Tetrazol-5-yl-)-N-(3,4,5-trimethoxyl)-thiazole-2,4-diamine], the inhibition at 100 µM at CDK4/Cyclin D3 complex was < 0%. For the same molecule, the Ki in assay [1] (Table 2) amounted to 64000 nM.

For `CN(C)c1ccc(Nc2nc(N)c(-c3nn[nH]n3)s2)cc1` [J(2), N-(4-Dimethylamino-phenyl)-5-(2H-tetrazol-5-yl)-thiazole-2,4-diamine], the inhibition at 100 µM on CDK4/Cyclin D3 complex came out at 29%. Also, the Ki in assay [1] (Table 2) amounted to 53000 nM.

The values are drawn from patent US6620828B2, “Thiazole compounds and pharmaceutical compositions for inhibiting protein kinases and methods for their use” (Agouron Pharmaceuticals, Inc., priority 1999, dated 2003).
